Data as given in the NIST ThermoML archive (doi:10.1016/j.jct.2015.01.007).
± gives the expanded uncertainty stated by the source.

Test: molar heat capacity at constant pressure
Conditions: 101.33 kPa, Crystal 1

O=P([O-])([O-])[O-].[Fe+2].[Li+] [iron(II) lithium phosphate]
Conditions	molar heat capacity at constant pressure [J/K/mol]
66.42 K, relaxation calorimetry	28.2 ± 1.1
67.51 K, relaxation calorimetry	28.84 ± 1.2
68.59 K, relaxation calorimetry	29.48 ± 1.2
69.68 K, relaxation calorimetry	30.12 ± 1.2
70 K, combination of DSC and relaxation calorimetry	30.31 ± 1.2
70.77 K, relaxation calorimetry	30.78 ± 1.2
71.15 K, relaxation calorimetry	31.26 ± 1.3
73.24 K, relaxation calorimetry	32.53 ± 1.3
75.34 K, relaxation calorimetry	33.86 ± 1.4
77.43 K, relaxation calorimetry	35.17 ± 1.4
79.53 K, relaxation calorimetry	36.46 ± 1.5
80 K, combination of DSC and relaxation calorimetry	36.84 ± 1.5
81.62 K, relaxation calorimetry	37.8 ± 1.5
83.72 K, relaxation calorimetry	39.15 ± 1.6
85.81 K, relaxation calorimetry	40.41 ± 1.6
87.9 K, relaxation calorimetry	41.69 ± 1.7
90 K, combination of DSC and relaxation calorimetry	43.39 ± 1.8
90 K, relaxation calorimetry	42.91 ± 1.7
92.09 K, relaxation calorimetry	44.24 ± 1.8
94.19 K, relaxation calorimetry	45.59 ± 1.9
96.28 K, relaxation calorimetry	46.89 ± 1.9
98.38 K, relaxation calorimetry	48.18 ± 2
100 K, combination of DSC and relaxation calorimetry	49.48 ± 2
100.47 K, relaxation calorimetry	49.44 ± 2
102.56 K, relaxation calorimetry	50.67 ± 2.1
104.65 K, relaxation calorimetry	52.08 ± 2.1
106.73 K, relaxation calorimetry	53.17 ± 2.2
108.85 K, relaxation calorimetry	54.37 ± 2.2
110 K, combination of DSC and relaxation calorimetry	55.21 ± 2.2
110.94 K, relaxation calorimetry	55.54 ± 2.3
113.02 K, relaxation calorimetry	56.62 ± 2.3
115.13 K, relaxation calorimetry	58.05 ± 2.4
117.22 K, relaxation calorimetry	59.3 ± 2.4
119.27 K, relaxation calorimetry	60.39 ± 2.5
119.96 K, relaxation calorimetry	60.87 ± 2.5
120 K, combination of DSC and relaxation calorimetry	60.65 ± 2.5
120.69 K, relaxation calorimetry	61.12 ± 2.5
121.4 K, relaxation calorimetry	61.55 ± 2.5
122.12 K, relaxation calorimetry	61.93 ± 2.5
122.83 K, relaxation calorimetry	62.24 ± 2.5
123.54 K, relaxation calorimetry	62.63 ± 2.5
124.25 K, relaxation calorimetry	63.1 ± 2.6
124.96 K, relaxation calorimetry	63.45 ± 2.6
125.68 K, relaxation calorimetry	63.84 ± 2.6
126.36 K, relaxation calorimetry	64.12 ± 2.6
127.07 K, relaxation calorimetry	64.49 ± 2.6
127.81 K, relaxation calorimetry	64.96 ± 2.6
130 K, combination of DSC and relaxation calorimetry	65.85 ± 2.7
131.36 K, relaxation calorimetry	66.82 ± 2.7
140 K, combination of DSC and relaxation calorimetry	70.83 ± 2.9
141.32 K, relaxation calorimetry	71.82 ± 2.9
150 K, combination of DSC and relaxation calorimetry	75.59 ± 3.1
151.46 K, relaxation calorimetry	76.8 ± 3.1
160 K, combination of DSC and relaxation calorimetry	80.13 ± 3.2
161.54 K, relaxation calorimetry	81.23 ± 3.3
170 K, combination of DSC and relaxation calorimetry	84.45 ± 3.4
171.6 K, relaxation calorimetry	85.36 ± 3.5
180 K, combination of DSC and relaxation calorimetry	88.56 ± 3.6
181.68 K, relaxation calorimetry	89.21 ± 3.6
190 K, combination of DSC and relaxation calorimetry	92.44 ± 3.8
191.78 K, relaxation calorimetry	93.16 ± 3.8
200 K, combination of DSC and relaxation calorimetry	96.11 ± 3.9
201.84 K, relaxation calorimetry	97.49 ± 4
210 K, combination of DSC and relaxation calorimetry	99.57 ± 4
211.78 K, relaxation calorimetry	100.3 ± 4.1
220 K, combination of DSC and relaxation calorimetry	102.8 ± 4.2
222.01 K, relaxation calorimetry	103.27 ± 4.2
230 K, combination of DSC and relaxation calorimetry	105.9 ± 4.3
232.1 K, relaxation calorimetry	105.66 ± 4.3
240 K, combination of DSC and relaxation calorimetry	108.7 ± 4.4
242.04 K, relaxation calorimetry	108.22 ± 4.4
250 K, combination of DSC and relaxation calorimetry	111.4 ± 4.5
252.15 K, relaxation calorimetry	110.6 ± 4.5
260 K, combination of DSC and relaxation calorimetry	113.9 ± 4.6
262.34 K, relaxation calorimetry	112.67 ± 4.6
270 K, combination of DSC and relaxation calorimetry	116.3 ± 4.7
272.43 K, relaxation calorimetry	114.97 ± 4.7
280 K, combination of DSC and relaxation calorimetry	118.4 ± 4.8
282.56 K, relaxation calorimetry	117.79 ± 4.8
284.9 K, Small sample (50 mg) DSC	120.8 ± 3
290 K, combination of DSC and relaxation calorimetry	120.5 ± 4.9
292.55 K, relaxation calorimetry	120.06 ± 4.9
293.2 K, Large sample (1 g) DSC	120.85 ± 3
294.8 K, Small sample (50 mg) DSC	122.5 ± 3
298.15 K, combination of DSC and relaxation calorimetry	122.1 ± 5
300 K, combination of DSC and relaxation calorimetry	122.4 ± 5
302.7 K, relaxation calorimetry	120.5 ± 4.9
304.6 K, Small sample (50 mg) DSC	126.1 ± 3.1
313.2 K, Large sample (1 g) DSC	125.4 ± 3.1
314.5 K, Small sample (50 mg) DSC	128.2 ± 3.1
320 K, combination of DSC and relaxation calorimetry	129 ± 5.2
324.4 K, Small sample (50 mg) DSC	129.7 ± 3.2
333.2 K, Large sample (1 g) DSC	128 ± 3.1
334.4 K, Small sample (50 mg) DSC	132.2 ± 3.2
340 K, combination of DSC and relaxation calorimetry	133.4 ± 5.4
344.3 K, Small sample (50 mg) DSC	134.8 ± 3.3
353.2 K, Large sample (1 g) DSC	130.1 ± 3.2
354.2 K, Small sample (50 mg) DSC	136.3 ± 3.3
360 K, combination of DSC and relaxation calorimetry	137.6 ± 5.6
364.1 K, Small sample (50 mg) DSC	137.9 ± 3.4
374 K, Small sample (50 mg) DSC	140.2 ± 3.4
380 K, combination of DSC and relaxation calorimetry	141.6 ± 5.8
383.9 K, Small sample (50 mg) DSC	142.9 ± 3.5
393.8 K, Small sample (50 mg) DSC	145.5 ± 3.6
400 K, combination of DSC and relaxation calorimetry	145.3 ± 5.9
403.8 K, Small sample (50 mg) DSC	147 ± 3.6
413.7 K, Small sample (50 mg) DSC	148.9 ± 3.6
420 K, combination of DSC and relaxation calorimetry	148.7 ± 6
423.6 K, Small sample (50 mg) DSC	150.3 ± 3.7
433.5 K, Small sample (50 mg) DSC	151.6 ± 3.7
440 K, combination of DSC and relaxation calorimetry	151.9 ± 6.2
443.4 K, Small sample (50 mg) DSC	152.8 ± 3.7
453.3 K, Small sample (50 mg) DSC	154 ± 3.8
460 K, combination of DSC and relaxation calorimetry	154.9 ± 6.3
463.3 K, Small sample (50 mg) DSC	155 ± 3.8
473.2 K, Small sample (50 mg) DSC	156.3 ± 3.8
480 K, combination of DSC and relaxation calorimetry	157.7 ± 6.4
483.1 K, Small sample (50 mg) DSC	157.5 ± 3.9
493 K, Small sample (50 mg) DSC	159 ± 3.9
500 K, combination of DSC and relaxation calorimetry	160.3 ± 6.5
502.9 K, Small sample (50 mg) DSC	160 ± 3.9
512.8 K, Small sample (50 mg) DSC	161 ± 3.9
520 K, combination of DSC and relaxation calorimetry	162.7 ± 6.6
522.7 K, Small sample (50 mg) DSC	162.2 ± 4
532.6 K, Small sample (50 mg) DSC	163.4 ± 4
540 K, combination of DSC and relaxation calorimetry	164.9 ± 6.7
542.5 K, Small sample (50 mg) DSC	165 ± 4
552.4 K, Small sample (50 mg) DSC	166.2 ± 4.1
560 K, combination of DSC and relaxation calorimetry	167 ± 6.8
562.3 K, Small sample (50 mg) DSC	167.1 ± 4.1
572.3 K, Small sample (50 mg) DSC	168.3 ± 4.1
580 K, combination of DSC and relaxation calorimetry	169 ± 6.9
582.2 K, Small sample (50 mg) DSC	169.6 ± 4.2
592.1 K, Small sample (50 mg) DSC	170.4 ± 4.2
600 K, combination of DSC and relaxation calorimetry	170.9 ± 6.9
602 K, Small sample (50 mg) DSC	171.1 ± 4.2
611.9 K, Small sample (50 mg) DSC	173 ± 4.2
620 K, combination of DSC and relaxation calorimetry	172.8 ± 7
621.8 K, Small sample (50 mg) DSC	173.6 ± 4.3
631.7 K, Small sample (50 mg) DSC	174.2 ± 4.3
640 K, combination of DSC and relaxation calorimetry	174.5 ± 7.1
641.6 K, Small sample (50 mg) DSC	174.9 ± 4.3
651.6 K, Small sample (50 mg) DSC	175.7 ± 4.3
660 K, combination of DSC and relaxation calorimetry	176.3 ± 7.2
661.5 K, Small sample (50 mg) DSC	176.8 ± 4.3
671.8 K, Small sample (50 mg) DSC	177.4 ± 4.3
680 K, combination of DSC and relaxation calorimetry	178.1 ± 7.2
681.3 K, Small sample (50 mg) DSC	178 ± 4.4
691.3 K, Small sample (50 mg) DSC	178.7 ± 4.4
700 K, combination of DSC and relaxation calorimetry	179.8 ± 7.3
701.2 K, Small sample (50 mg) DSC	179.4 ± 4.4
711.1 K, Small sample (50 mg) DSC	180.6 ± 4.4
720 K, combination of DSC and relaxation calorimetry	181.6 ± 7.4
721 K, Small sample (50 mg) DSC	181.6 ± 4.4
730.9 K, Small sample (50 mg) DSC	182.4 ± 4.5
740 K, combination of DSC and relaxation calorimetry	183.5 ± 7.5
740.8 K, Small sample (50 mg) DSC	183.5 ± 4.5
750.8 K, Small sample (50 mg) DSC	184.5 ± 4.5
760 K, combination of DSC and relaxation calorimetry	185.5 ± 7.5
760.7 K, Small sample (50 mg) DSC	185.7 ± 4.5
770.6 K, Small sample (50 mg) DSC	186.9 ± 4.6
